Literature values in patent US9314435B2, “Stable formulations of antiplatelet agents, omega-3 fatty acids and amylose in soft gelatin capsules” (ALTERGON S.A., priority 2011, dated 2016).

Settings: 325 mg on alternate days

In the case of `CC(=O)Oc1ccccc1C(=O)O` [ASA, Acetylsalicylic acid], the “reduction of the risk of the first heart attack” value is listed as 44%.
